Test results reported in ChEMBL document CHEMBL4602638, “Propargylglycine-based antimicrobial compounds are targets of TolC-dependent efflux systems in Escherichia coli” (Bioorg Med Chem Lett, 2020).
Converted amounts (≈) assume the structure as drawn. The source made the active and inactive calls. The calls are words filed in the database; no cut-off is given here.

What was measured:
[1] = Lipophilicity, logP of compound; type: physicochemical; conditions: octanol/water
[2] = target: T1, UDP-3-O-acyl-N-acetylglucosamine deacetylase (Pseudomonas aeruginosa (strain ATCC 15692 / PAO1 / 1C / PRS 101 / LMG12228)) (UniProt P47205); experiment: Inhibition of LpxC in Pseudomonas aeruginosa assessed as reduction in bacterial growth measured after 20 hrs by CLSI protocol based microbroth dilution method
T1 sequence (whole entry): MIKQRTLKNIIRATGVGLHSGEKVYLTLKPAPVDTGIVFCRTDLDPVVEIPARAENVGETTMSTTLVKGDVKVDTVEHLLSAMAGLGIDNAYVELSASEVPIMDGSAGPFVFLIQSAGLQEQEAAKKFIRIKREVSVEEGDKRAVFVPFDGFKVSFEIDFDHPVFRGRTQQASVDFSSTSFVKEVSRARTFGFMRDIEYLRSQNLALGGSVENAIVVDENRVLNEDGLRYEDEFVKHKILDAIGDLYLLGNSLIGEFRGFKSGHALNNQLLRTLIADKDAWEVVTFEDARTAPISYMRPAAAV

[3] = target: T1, UDP-3-O-acyl-N-acetylglucosamine deacetylase (Pseudomonas aeruginosa (strain ATCC 15692 / PAO1 / 1C / PRS 101 / LMG12228)); experiment: Inhibition of LpxC in Pseudomonas aeruginosa assessed as delay in bacterial growth at 25 to 50 ug/ml measured after 20 hrs by CLSI protocol based microbroth dilution method
[4] = target: T2, UDP-3-O-acyl-N-acetylglucosamine deacetylase (Escherichia coli K-12) (UniProt P0A725); experiment: Inhibition of LpxC in Escherichia coli harboring deltaTolC mutant assessed as reduction in bacterial growth measured after 20 hrs by CLSI protocol based microbroth dilution method
T2 sequence (whole entry): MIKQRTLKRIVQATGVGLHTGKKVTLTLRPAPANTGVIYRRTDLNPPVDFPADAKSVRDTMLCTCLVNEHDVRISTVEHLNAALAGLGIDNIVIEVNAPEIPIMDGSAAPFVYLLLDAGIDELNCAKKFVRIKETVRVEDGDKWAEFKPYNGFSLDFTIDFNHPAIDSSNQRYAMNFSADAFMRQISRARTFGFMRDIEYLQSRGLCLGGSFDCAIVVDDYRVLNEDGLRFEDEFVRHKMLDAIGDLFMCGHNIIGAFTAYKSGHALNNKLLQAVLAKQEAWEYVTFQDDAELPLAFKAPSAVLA

[5] = target: T2, UDP-3-O-acyl-N-acetylglucosamine deacetylase (Escherichia coli K-12); experiment: Inhibition of LpxC in Escherichia coli expressing deltaCdelta4LFhuA assessed as reduction in bacterial growth measured after 20 hrs by CLSI protocol based microbroth dilution method
[6] = target: T2, UDP-3-O-acyl-N-acetylglucosamine deacetylase (Escherichia coli K-12); experiment: Inhibition of LpxC in Escherichia coli assessed as reduction in bacterial growth measured after 20 hrs by CLSI protocol based microbroth dilution method
[7] = target: T2, UDP-3-O-acyl-N-acetylglucosamine deacetylase (Escherichia coli K-12); experiment: Inhibition of LpxC in Escherichia coli assessed as reduction in bacterial growth at 160 ug/ml measured after 20 hrs by CLSI protocol based microbroth dilution method
[8] = target: T2, UDP-3-O-acyl-N-acetylglucosamine deacetylase (Escherichia coli K-12); experiment: Inhibition of LpxC in Escherichia coli harboring deltaACRB mutant assessed as reduction in bacterial growth measured after 20 hrs by CLSI protocol based microbroth dilution method
[9] = target: T2, UDP-3-O-acyl-N-acetylglucosamine deacetylase (Escherichia coli K-12); experiment: Inhibition of LpxC in Escherichia coli expressing deltaCdelta4LFhuA and harboring deltaACRB mutant assessed as reduction in bacterial growth measured after 20 hrs by CLSI protocol based microbroth dilution method
[10] = target: T2, UDP-3-O-acyl-N-acetylglucosamine deacetylase (Escherichia coli K-12); experiment: Inhibition of LpxC in Escherichia coli expressing deltaCdelta4LFhuA assessed as reduction in bacterial growth at 80 ug/ml measured after 20 hrs by CLSI protocol based microbroth dilution method
[11] = target: T2, UDP-3-O-acyl-N-acetylglucosamine deacetylase (Escherichia coli K-12); experiment: Inhibition of LpxC in Escherichia coli expressing deltaCdelta4LFhuA and harboring deltaTolC mutant assessed as reduction in bacterial growth measured after 20 hrs by CLSI protocol based microbroth dilution method
[12] = target: T2, UDP-3-O-acyl-N-acetylglucosamine deacetylase (Escherichia coli K-12); experiment: Inhibition of LpxC in Escherichia coli assessed as reduction in bacterial growth at 80 ug/ml measured after 20 hrs by CLSI protocol based microbroth dilution method

C#CC[C@H](NC(=O)c1ccccc1)C(=O)NO showed a logP [1] of 0.61.

With C#CC[C@H](NC(=O)c1ccc(OCC#CC)cc1)C(=O)NO the logP [1] was 1.29, the MIC [2] was 100 µg/mL (≈ 333 µM) and the inhibition [3] was “Active”. For the same compound, the MIC [4] was 80 µg/mL (≈ 266 µM), the MIC [5] was 100 µg/mL (≈ 333 µM) and the MIC [6] was over 160 µg/mL. The inhibition [6] was “Dose-dependent effect”, the inhibition [7] was “inactive” and the MIC [8] was 80 µg/mL (≈ 266 µM).

In the case of C#CC[C@H](NC(=O)c1ccc(-c2ccccc2)cc1)C(=O)NO, the inhibition [9] was “Active”, the logP [1] was 2.28 and the MIC [4] was 16 µg/mL (≈ 51.9 µM). For the same compound, the inhibition [10] was “inactive”, the inhibition [11] was “Active” and the MIC [8] was 32 µg/mL (≈ 104 µM). The inhibition [8] was “Dose-dependent effect” and the inhibition [12] was “inactive”.

For O=C(N[C@@H](Cc1cn(C[C@H]2O[C@@H](n3ccc(=O)[nH]c3=O)[C@H](O)[C@@H]2O)nn1)C(=O)NO)c1ccc(-c2ccccc2)cc1, the logP [1] was -0.01.

With N[C@@H](Cc1cn(C[C@H]2O[C@@H](n3ccc(=O)[nH]c3=O)[C@H](O)[C@@H]2O)nn1)C(=O)NO the logP [1] was -3.52.

CC#CCOc1ccc(C(=O)N[C@H](C(=O)NO)C(C)(C)N)cc1 showed a logP [1] of 0.44.

For CC#CCOc1ccc(C(=O)N[C@@H](Cc2cn(C[C@H]3O[C@@H](n4ccc(=O)[nH]c4=O)[C@H](O)[C@@H]3O)nn2)C(=O)NO)cc1, the logP [1] was -1.69.
